The record followed here is US20260294769A1, “ASCORBIC ACID DERIVATIVES AND COSMETIC THEREOF” (SEIWA KASEI COMPANY, LIMITED, priority 2023, published 2026).

The nature of series [1]: Stability Test-2: odor of cream stored at 50° C. Format: physicochemical. To be noted: 10 panelists. A digest of the protocol: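 Test creams were made by heating and mixing components (a) and (b), cooling, then adding component (c) to give a pH of 7 or 9. After storage at 50° C., 10 panelists scored odor: 3 almost odorless, 2 slight strange odor, 1 strong odor. Totals were graded ◯ (25 or more), Δ (16-24) or x (15 or less).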

Series [2] in a line: Stability Test-2: residual rate in cream of pH 7 or 9 stored at 50° C. Format: physicochemical. A digest of the protocol:
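Each test sample was formulated into a cream adjusted to pH 7 or 9: components (a) and (b) were heated and mixed separately, cooled, and then component (c) was added. The cream was held at 50° C., and the percentage of the sample compound still present (residual rate) was determined after storage.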

The test system of series [3] is Normal human epidermal keratinocytes. Put plainly: Antioxidant effect: ROS production inhibition rate (DCFHDA, H2O2). Format: cell-based. To be noted: 10 mM or less, 24 hours incubation, 0.2 mM H2O2, N=4. How it is done:
Normal human epidermal keratinocytes were seeded onto a 96-well plate using KG2 medium at a cell density of 2.0×10^4 cells/well. After 24 hours of pre-incubation, samples adjusted to a predetermined concentration in KG2 medium were added to each well. After 24 hours of incubation, the medium was removed, followed by washing with HBSS(−) and the incorporation of the ROS-reactive fluorescent probe DCFHDA for 30 minutes. The cells were again washed with HBSS(−), treated with 0.2 mM H2O2, and incubated for 2 hours. The fluorescence intensity was measured, and the amount of ROS produced per unit protein was calculated by dividing the fluorescence intensity by the amount of protein quantified by the BCA method, resulting in an analytical value of 1. Furthermore, the amount of ROS production calculated without adding the sample adjusted to a predetermined concentration using the above test method was set to analytical value 2; and the amount of ROS production calculated without adding the sample or 0.2 mM H2O2 was set to analytical value 3.
ROS production inhibition rate (%) was calculated using the following formula. The higher the ROS production inhibition rate, the greater the antioxidant effect can be evaluated to be.
The ROS production inhibition rate when the sample was measured at a concentration of 10 mM or less was evaluated as follows. Note that the measurement was performed in N=4.

Series [4] has as its system Normal human dermal fibroblasts. Put plainly: Collagen production promoting effect (ELISA of free collagen in supernatant). To be noted: 10 mM or less, 48 hours, control group set to 100%, N=3. Format: cell-based. For orientation: An ELISA detects its analyte on a solid surface through an enzyme-linked reagent.
Series [5] in a line: Stability Test-2: coloration of cream stored at 50° C. Format: physicochemical. Conditions: 10 panelists. An outline of the steps:
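Creams were made by heating and mixing parts (a) and (b), cooling, then adding part (c), adjusting pH to 7 or 9. After storage at 50° C., ten panelists scored coloration against the freshly prepared cream: 3 for almost no change, 2 for color change, 1 for strong coloration.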

Series [6] concerns Normal human dermal fibroblasts (NHDF). Put plainly: Hyaluronic acid production promoting effect (ELISA of hyaluronic acid in supernatant). Format: cell-based. Conditions: 10 mM or less, 48 hours, control group set to 100%, N=3. A digest of the protocol: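 NHDF seeded at 2.5×10^4 cells/well in D-MEM with 5% FBS, pre-incubated 24 h, then exposed to samples in serum-free D-MEM for 48 h. Supernatant hyaluronic acid measured by ELISA in triplicate, expressed as % of control (100%) at ≤10 mM sample.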

SMILES strings stand for the structures.

Take `CCCC(=O)OCC(OC(=O)CCC)C1OC(=O)C2=C1OCCCCO2` (centres unmarked) [Synthesis Example 10, 5,6-O-dibutanoyl-2,3-O-(1,4-butanediyl) ascorbic acid]: the Odor result is given as “◯ (Total score of 10 panelists is 25 or more)” in series [1] (after 2 weeks) and “Δ (Total score of 10 panelists is 16-24)” in series [1] (after 4 weeks). Also, the “Residual Rate” value in series [2] (cream pH 7, 50° C., after 2 weeks, 20160 min) is listed as “⊚ (95% or more)”; in series [2] (cream pH 7, 50° C., after 4 weeks, 40320 min) it was “⊚ (95% or more)”; in series [2] (cream pH 9, 50° C., after 2 weeks, 20160 min), “⊚ (95% or more)”; in series [2] (cream pH 9, 50° C., after 4 weeks, 40320 min) it was “⊚ (95% or more)”. In addition, the “Antioxidant effect (ROS production inhibition rate)” value in series [3] was “+ (<20%)”. Moreover, the Collagen production-promoting effect result in series [4] was “++ (140%<)”. Further, the Coloration result in series [5] (after 2 weeks) and in series [5] (after 4 weeks) was “◯ (Total score of 10 panelists is 25 or more)” each time. Moreover, the “Hyaluronic acid production-promoting effect” value in series [6] was “++ (120%<)”.
